Reference: patent US20250115581A1, “SUBSTITUTED PIPERIDINES AS CK1A DEGRADERS” (Monte Rosa Therapeutics, Inc., priority 2022, published 2025)

Tests used:
CK1α = target: T1, CK1α (Homo sapiens, UniProt P48729+Q96SW2); experiment: CK1α NanoBit Assay (HiBiT-tagged CSNK1A1 in HEK293 cells, luminescence); type: cell-based; conditions: 24 h
T1 construct: HEK293 clonal lines with CRISPR KI HiBiT tag on CSNK1A1; host or cells: HEK293 clonal line, CRISPR knock-in HiBiT at the CSNK1A1 locus, stably expressing LgBiT
T1 sequence (P48729 whole entry): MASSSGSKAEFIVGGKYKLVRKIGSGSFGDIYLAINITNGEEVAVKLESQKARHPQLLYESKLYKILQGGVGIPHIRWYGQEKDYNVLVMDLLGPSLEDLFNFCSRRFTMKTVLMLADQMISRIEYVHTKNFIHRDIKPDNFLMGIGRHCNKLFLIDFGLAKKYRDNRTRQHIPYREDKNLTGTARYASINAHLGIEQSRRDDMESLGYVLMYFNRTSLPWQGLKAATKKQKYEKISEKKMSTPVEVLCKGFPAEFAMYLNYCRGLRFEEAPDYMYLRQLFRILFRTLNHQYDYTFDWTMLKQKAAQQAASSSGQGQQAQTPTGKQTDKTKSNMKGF
T1 sequence (Q96SW2 whole entry): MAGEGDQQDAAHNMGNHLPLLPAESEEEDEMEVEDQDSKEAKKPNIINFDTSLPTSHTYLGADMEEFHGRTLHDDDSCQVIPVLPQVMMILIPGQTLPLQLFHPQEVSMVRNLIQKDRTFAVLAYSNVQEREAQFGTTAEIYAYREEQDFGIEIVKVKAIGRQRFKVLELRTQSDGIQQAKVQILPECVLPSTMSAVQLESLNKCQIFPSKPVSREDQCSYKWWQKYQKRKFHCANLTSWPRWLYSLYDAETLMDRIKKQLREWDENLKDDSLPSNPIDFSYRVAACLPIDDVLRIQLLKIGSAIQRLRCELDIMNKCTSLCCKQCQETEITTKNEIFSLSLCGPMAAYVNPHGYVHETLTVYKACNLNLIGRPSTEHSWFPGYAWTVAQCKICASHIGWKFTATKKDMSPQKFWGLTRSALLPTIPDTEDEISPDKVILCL
T1 sequence (Q16531 whole entry partner): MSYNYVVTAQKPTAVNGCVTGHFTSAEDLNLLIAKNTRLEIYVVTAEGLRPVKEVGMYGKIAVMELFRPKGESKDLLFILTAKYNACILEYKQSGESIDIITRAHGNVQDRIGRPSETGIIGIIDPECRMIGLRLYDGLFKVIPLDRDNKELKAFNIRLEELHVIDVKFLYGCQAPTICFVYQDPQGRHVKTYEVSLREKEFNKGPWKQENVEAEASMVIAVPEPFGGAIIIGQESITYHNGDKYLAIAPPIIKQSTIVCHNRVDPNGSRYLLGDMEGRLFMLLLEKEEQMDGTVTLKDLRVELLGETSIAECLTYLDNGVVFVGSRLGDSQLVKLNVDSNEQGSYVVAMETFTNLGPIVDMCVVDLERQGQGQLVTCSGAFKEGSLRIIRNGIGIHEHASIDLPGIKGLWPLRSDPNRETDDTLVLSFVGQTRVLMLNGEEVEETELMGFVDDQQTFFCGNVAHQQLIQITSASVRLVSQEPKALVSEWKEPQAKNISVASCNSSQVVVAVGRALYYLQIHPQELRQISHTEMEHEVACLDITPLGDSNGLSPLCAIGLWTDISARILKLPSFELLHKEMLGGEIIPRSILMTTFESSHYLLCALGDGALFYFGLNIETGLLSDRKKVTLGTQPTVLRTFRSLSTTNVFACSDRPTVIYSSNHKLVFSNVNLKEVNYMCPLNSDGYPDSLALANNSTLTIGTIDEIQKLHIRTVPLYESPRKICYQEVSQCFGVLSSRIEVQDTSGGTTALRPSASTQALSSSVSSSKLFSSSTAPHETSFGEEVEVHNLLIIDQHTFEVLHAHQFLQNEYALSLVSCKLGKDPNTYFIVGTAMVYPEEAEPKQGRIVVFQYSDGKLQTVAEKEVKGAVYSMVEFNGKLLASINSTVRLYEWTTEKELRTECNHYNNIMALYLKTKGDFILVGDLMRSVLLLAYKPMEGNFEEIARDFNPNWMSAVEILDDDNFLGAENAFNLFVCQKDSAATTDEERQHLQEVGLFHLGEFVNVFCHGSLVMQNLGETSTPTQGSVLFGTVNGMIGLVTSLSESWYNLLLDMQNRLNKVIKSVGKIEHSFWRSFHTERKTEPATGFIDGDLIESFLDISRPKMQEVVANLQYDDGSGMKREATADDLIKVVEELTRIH
Description: HEK293 clonal lines with CRISPR KI HiBiT tag on CSNK1A1 and stably expressing LgBiT protein were obtained from Promega (Madison, WI). Cells were plated at 5000 cells per well using Multiflo (BioTek) in 384-well white solid bottom plates (Corning, 3570BC) in 25 μl volume in DMEM media (DMEM, high glucose, HEPES, no phenol red (ThermoFisher Scientific, 21063029)) containing 10% FBS (Corning, 35-075-CV), 1% Penicillin/Streptomycin ((ThermoFisher Scientific, 15140-122), and 0.2% Endurazine (Nano-Glo Endurazine Live Cell Substrate (Promega, N2571)). Cells were incubated for 16 hours at 37° C., 5% CO2. Depending on experiment 25 or 75 nL of a compound at 10 mM were added into the plate using an Echo® 650 liquid handler (Labcyte) to achieve final concentration of 10 or 30 μM in wells. Cells were incubated at 37° C., 5% CO2 for 24 hours and then signal was read on a Pherastar FSX using “LUM plus” optic module.
Data analysis was performed in Scinamic (Scinamic, Cambridge, MA). Luminescence response (R) was calculated by the formula: response=100*(S−N)/(P−N) where S is the signal of the well, N and P the mean negative and positive control values respectively of the same plate. The luminescence response was then fitted in Scinamic using a 3-parameter agonist logistic fit (hillslope=1, EC50>0, top/bottom unconstrained).
DC50 data are reported in Table 2 for compounds in Table 1. In Table 2 below, According to the code, A represents a DC50 value of ≤0.1 μM, B represents a DC50 value >0.1 μM and ≤1 μM, C represents an DC50 value >1 μM.

CRBN/DDB1 = CRBN/DDB1 (Homo sapiens, UniProt Q96SW2); experiment: HTRF binding assay (displacement of Cy5-thalidomide probe from CRBN/DDB1); conditions: CRBN/DDB1 2.5 nM, Cy5-Thalidomide 100 nM, 30 min; geometric mean; read-out: HTRF_Thali_Disp_DR_geo_IC50
CRBN/DDB1, sequence (Q96SW2 whole entry): as the sequence (Q96SW2 whole entry) above
CRBN/DDB1, sequence (Q16531 whole entry partner): as the sequence (Q16531 whole entry partner) above
Description: Binding of test compounds to CRBN/DDB1 was monitored in an HTRF assay using 1-[5-({2-[2-(2-{[2-(2,6-dioxopiperidin-3-yl)-1,3-dioxo-2,3-dihydro-1H-isoindol-4-yl]oxy}acetamido)ethoxy]ethyl}carbamoyl)pentyl]-3,3-dimethyl-2-[(1E,3E)-5-[(2E)-1,3,3-trimethyl-5-sulfo-2,3-dihydro-1H-indol-2-ylidene]penta-1,3-dien-1-yl]-3H-indol-1-ium-5-sulfonate as a fluorescent probe. In this assay, compounds displace the fluorescently labeled thalidomide-based probe bound to CRBN and fluorescence is monitored with increasing compound concentration. Assays were conducted in Greiner white 384 well HiBase plates (Cat. No 784075-25) in 10 μL total volume. A one pot detection solution of CRBN/DDB1 (2.5 nM), anti-His Terbium Cryptate Gold (1×, PerkinElmer Cat. #: 61HI2TLB), and Cy5-Thalidomide (100 nM, Tenova Cat.: T52461) was prepared in 20 mM HEPES, 20 mM NaCl, 0.2 mM TCEP, 0.2 mM EDTA, and 0.005% Tween20 was dispensed to each assay plate. Test compounds were stored in dry, ambient temperatures at 10 mM. A 10-point, 1:3 dilution series was prepared from 10 mM stock concentrations in Echo-compatible LDV plates. 10 nL of each compound dilution series was dispensed into assays wells using an Echo 650 (Labcyte inc. USA). 10 nL of 10 mM lenalidomide (Selleckchem Cat no. S1029) was transferred into the active-control wells for the assay and 10 nL of DMSO was transferred into the negative control wells. The assay was then allowed to incubate for 30 min at ambient temperature after transferring the test compounds. Plate measurements were taken on a Pherastar FSX (BMG Labtech, Germany) using the HTRF Red filter (Ex. 337 nm, em1: 620 nm, em2: 665 nm) (Flashes: 50, Integration time: 60-400 μs, Z-height: 10 mm, Ratio-multiplier: 10,000). Analysis, HTRF ratio and IC50 values were derived using KNIME analytics (KNIME Zurich) transformation and fitting within Collaborative Drug Discovery (Collaborative Drug Discovery USA) using a 4-parameter logistic fit. HTRF ratio calculation was performed using the following formula: […]
where em665 nm represents the measured emission at 665 nm upon excitation at 337 nm and em620 nm the measured emission at 620 nm upon excitation at 337 nm. The 4 parameter logistic fitting model was performed using the following formula: […]
where Y represents the HTRF ratio response (as defined previously), X the compound concentration in μM, Ymin the minimum response plateau, Ymax the maximum response plateau, IC50 the concentration of […] that gives a response half way between Ymin and Ymax and HillSlope the steepness of the family of curves. No fitting model constraints was applied on Ymin, or Ymax whilst IC50>0 and −0.5>HillSlope>−3 Cheng-Prusoff transformation
Ki values were derived from the geometric mean of the IC50 values using the Cheng-Prusoff transformation:
where [L] represents the concentration of fluorescent probe in […], Kd the affinity (binding constant) of the fluorescent probe in units of μM and IC50 the concentration of agonist that gives a response halfway between Ymin and Ymax (as described in 1.2.1)
Analysis and IC50 values were derived using KNIME analytics (KNIME, Zurich) transformation and fitting within Collaborative Drug Discovery (Collaborative Drug Discovery, USA) as described in 1.2.1. Ki values were derived from the geometric mean of the IC50 values using the Cheng-Prusoff transformation as described in 2.2.2. Data was visualized in GraphPad Prism 8.1.2 (GraphPad, USA) and reported as mean and standard deviation. Microsoft Office Excel 2012 (Redmond, WA) was used for calculation of mean and standard deviation.
IC50 data are reported in Table 3 for compounds in Table 1. In Table 3 below, According to the code, A represents a IC50 value of ≤0.1 μM, B represents a IC50 value >0.1 μM and ≤1 μM, C represents an IC50 value >1 μM.

Compound | DC50 (CK1α) [µM] | IC50 (CRBN/DDB1) [nM]
CC(C)c1ccc(N2CCN(c3ccc4c(c3)CN(C3CCC(=O)NC3=O)C4=O)C2=O)cc1 (centres unmarked) [Compound 120, 3-(5-(3-(4-isopropylphenyl)-2-oxoimidazolidin-1-yl)-1-oxoisoindolin-2-yl)piperidine-2,6-dione] | ≤ 0.1 | 100 to 1000
CC1CN(c2ccc3c(c2)CN(C2CCC(=O)NC2=O)C3=O)C(=O)N1c1ccc(C(F)(F)F)nc1 (centres unmarked) [Compound 121, 3-(5-(4-methyl-2-oxo-3-(6-(trifluoromethyl)pyridin-3-yl)imidazolidin-1-yl)-1-oxoisoindolin-2-yl)piperidine-2,6-dione] | ≤ 0.1 | 100 to 1000
Cc1ccc(N2C(=O)N(c3ccc4c(c3)CN(C3CCC(=O)NC3=O)C4=O)CC2C)cn1 (centres unmarked) [Compound 122, 3-(5-(4-methyl-3-(6-methylpyridin-3-yl)-2-oxoimidazolidin-1-yl)-1-oxoisoindolin-2-yl)piperidine-2,6-dione] | 0.1 to 1 | > 1000
O=C1CCC(N2Cc3cc(N4CCN(c5ccc6c(c5)OCC6)C4=O)ccc3C2=O)C(=O)N1 (centres unmarked) [Compound 127, 3-(5-(3-(2,3-dihydrobenzofuran-6-yl)-2-oxoimidazolidin-1-yl)-1-oxoisoindolin-2-yl)piperidine-2,6-dione] | ≤ 0.1 | > 1000
COCc1ccc(N2CCN(c3ccc4c(c3)CN(C3CCC(=O)NC3=O)C4=O)C2=O)cc1 (centres unmarked) [Compound 128, 3-(5-(3-(4-(methoxymethyl)phenyl)-2-oxoimidazolidin-1-yl)-1-oxoisoindolin-2-yl)piperidine-2,6-dione] | ≤ 0.1 | 100 to 1000
O=C1CCC(N2Cc3cc(N4CCN(c5ccc(C(F)F)cc5)C4=O)ccc3C2=O)C(=O)N1 (centres unmarked) [Compound 129, 3-(5-(3-(4-(difluoromethyl)phenyl)-2-oxoimidazolidin-1-yl)-1-oxoisoindolin-2-yl)piperidine-2,6-dione] | ≤ 0.1 | 100 to 1000
Cc1ccc(N2C(=O)N(c3ccc4c(c3)CN(C3CCC(=O)NC3=O)C4=O)C[C@H]2C)cc1 (stereo partly drawn) [Compound 130, 3-(5-((R)-4-methyl-2-oxo-3-(p-tolyl)imidazolidin-1-yl)-1-oxoisoindolin-2-yl) piperidine-2,6-dione] | ≤ 0.1 | 100 to 1000
O=C1CCC(N2Cc3cc(N4CCN(c5ccc(C6CCC6)cc5)C4=O)ccc3C2=O)C(=O)N1 (centres unmarked) [Compound 131, 3-(5-(3-(4-cyclobutylphenyl)-2-oxoimidazolidin-1-yl)-1-oxoisoindolin-2-yl)piperidine-2,6-dione] | ≤ 0.1 | > 1000
C[C@@H]1CN(c2ccc3c(c2)CN(C2CCC(=O)NC2=O)C3=O)C(=O)N1c1cnccn1 (stereo partly drawn) [Compound 132, 3-(5-((R)-4-methyl-2-oxo-3-(pyrazin-2-yl)imidazolidin-1-yl)-1-oxoisoindolin-2-yl)piperidine-2,6-dione] | ≤ 0.1 | 100 to 1000
COC1(c2ccc(N3CCN(c4ccc5c(c4)CN(C4CCC(=O)NC4=O)C5=O)C3=O)cc2)CC1 (centres unmarked) [Compound 133, 3-(5-(3-(4-(1-methoxycyclopropyl)phenyl)-2-oxoimidazolidin-1-yl)-1-oxoisoindolin-2-yl)piperidine-2,6-dione] | ≤ 0.1 | 100 to 1000
COCc1ccc(N2C(=O)N(c3ccc4c(c3)CN(C3CCC(=O)NC3=O)C4=O)C[C@H]2C)cc1 (stereo partly drawn) [Compound 134, 3-(5-((R)-3-(4-(methoxymethyl)phenyl)-4-methyl-2-oxoimidazolidin-1-yl)-1-oxoisoindolin-2-yl)piperidine-2,6-dione] | ≤ 0.1 | 100 to 1000
CC1(c2ccc(N3CCN(c4ccc5c(c4)CN(C4CCC(=O)NC4=O)C5=O)C3=O)cc2)CC1 (centres unmarked) [Compound 135, 3-(5-(3-(4-(1-methylcyclopropyl)phenyl)-2-oxoimidazolidin-1-yl)-1-oxoisoindolin-2-yl)piperidine-2,6-dione] | ≤ 0.1 | > 1000
COCc1cccc(N2CCN(c3ccc4c(c3)CN(C3CCC(=O)NC3=O)C4=O)C2=O)c1 (centres unmarked) [Compound 136, 3-(5-(3-(3-(methoxymethyl)phenyl)-2-oxoimidazolidin-1-yl)-1-oxoisoindolin-2-yl)piperidine-2,6-dione] | ≤ 0.1 | 100 to 1000
C[C@@H]1CN(c2ccc3c(c2)CN(C2CCC(=O)NC2=O)C3=O)C(=O)N1C1CCCC1 (stereo partly drawn) [Compound 138, 3-(5-((R)-3-cyclopentyl-4-methyl-2-oxoimidazolidin-1-yl)-1-oxoisoindolin-2-yl)piperidine-2,6-dione] | ≤ 0.1 | 100 to 1000
CO[C@@H](C)c1cccc(N2CCN(c3ccc4c(c3)CN(C3CCC(=O)NC3=O)C4=O)C2=O)c1 (stereo partly drawn) [Compound 139, 3-(5-(3-(3-((S)-1-methoxyethyl)phenyl)-2-oxoimidazolidin-1-yl)-1-oxoisoindolin-2-yl)piperidine-2,6-dione] | ≤ 0.1 | 100 to 1000
O=C1CCC(N2Cc3cc(N4CCN(c5cccc6c5CCO6)C4=O)ccc3C2=O)C(=O)N1 (centres unmarked) [Compound 140, 3-(5-(3-(2,3-dihydrobenzofuran-4-yl)-2-oxoimidazolidin-1-yl)-1-oxoisoindolin-2-yl)piperidine-2,6-dione] | ≤ 0.1 | 100 to 1000
C[C@@H]1CN(c2ccc3c(c2)CN(C2CCC(=O)NC2=O)C3=O)C(=O)N1C1CCC1 (stereo partly drawn) [Compound 142, 3-(5-((R)-3-cyclobutyl-4-methyl-2-oxoimidazolidin-1-yl)-1-oxoisoindolin-2-yl)piperidine-2,6-dione] | ≤ 0.1 | 100 to 1000
COC[C@@H]1CN(c2ccc3c(c2)CN(C2CCC(=O)NC2=O)C3=O)C(=O)N1c1ccc(C)cc1 (stereo partly drawn) [Compound 143, 3-(5-((S)-4-(methoxymethyl)-2-oxo-3-(p-tolyl)imidazolidin-1-yl)-1-oxoisoindolin-2-yl)piperidine-2,6-dione] | ≤ 0.1 | 100 to 1000
O=C1CCC(N2Cc3cc(N4CCN(c5ccc(C6CCOC6)cc5)C4=O)ccc3C2=O)C(=O)N1 (centres unmarked) [Compound 144, 3-(1-oxo-5-(2-oxo-3-(4-(tetrahydrofuran-3-yl)phenyl)imidazolidin-1-yl)isoindolin-2-yl)piperidine-2,6-dione] | ≤ 0.1 | 100 to 1000
